{"source": "patent US20230014782A1", "about": "“NEW SOLID STATE FORM OF LURBINECTEDIN” (PHARMA MAR, S.A., priority 2019, published 2023)", "key": {"[1]": {"test": "Electrostatic charge measurements with a Faraday cage", "format": "physicochemical", "conditions": "for Dispersion of charge density (Q/m) / Average charge density (Q/m): Faraday cage, dry nitrogen, ranges with 95% confidence; for Average charge density (Q/m): slope of lineal regression of charge vs mass", "source_text": "The electrostatic charges of two batches of form A of lurbinectedin (Batches P04 and R05) and of form B of lurbinectedin (Batch 1924129-LT and 1924128-LT) have been measured using a Faraday cage (See FIG. 8) constructed of stainless steel with concentric spheres with ratios 10, 15 and 20 cm.\nThis technique consists in placing the sample to be measured (q) in the interior of the inner sphere (a) and measuring the difference of potential induced between sphere (a) and another conductor of reference, sphere (b). The external sphere (c) is grounded in order to shield the system. The measurements of the difference of potential were carried out with a precision electrometer (Keithley 617, resolution 10fC.\nMeasurements were carried out under controlled atmosphere of dry nitrogen in order to avoid the effect of ambient humidity on the electrostatic charge of the samples.\nSamples were introduced in glass capsules using non-conductor instrumental to avoid loses of electrostatic charge.\nThe capsules loaded with the samples were introduced in the Faraday cage through a grounded conductor tube to avoid parasitic static charges in the glass capsule. The entry and removal of the capsules was done with a computer-controlled servo engine, in order to ensure a constant rate of introduction and removal of the capsules in each measurement to minimize the creation of static charges due to friction of the insulator elements.\nSeveral measurements with different amounts of material were carried out for each batch of each form of lurbinectedin. Before loading the capsules, they were washed and their remaining static charge was measured in order to correct the levels. Each sample was introduced and removed five times and, after each introduction, several consecutive measurements were taken in order to average any possible drift effect. FIGS. 9a and 9b summarized the results of such measurement for each pair of batches of forms A and B of lurbinectedin.\nThe measured charge Q increases with the amount of analyzed material. Both forms of lurbinectedin have a positive electrostatic charge. […] The data was fitted by lineal regression (dashed lines in FIGS. 9a and 9b) to obtain the charge density (Q/m) as the slope of the line. […] All ranges are given with a 95% confidence."}, "[2]": {"test": "Direct dissolution of lurbinectedin in sodium lactate buffer (dissolution kinetics)", "format": "physicochemical", "protocol": "In embodiments, the lurbinectedin to be dissolved is at least partially crystalline. The lurbinectedin to be dissolved may be in the solid state form(s) described herein. […] By way of example, while the direct dissolution of amorphous lurbinectedin at 0.5 mg/mL in 0.03 M sodium lactate buffer pH 4 was completed in approximately 30 minutes, partly crystalline lurbinectedin reached only 60-70% of the target concentration in 2 hours, meaning that it had much slower dissolution kinetics."}, "[3]": {"test": "TG-FTIR thermal degradation", "format": "physicochemical", "conditions": "N2 atmosphere, 25-250° C., 10° C./min", "protocol": "TG-FTIR experiments were conducted with a Thermo-Microbalance TG-209 (Netzsch) equipped with a FT-IR Spectrometer Vector 22 (Bruker) using Al crucible (open or with microhole) under N2 atmosphere with a heating range between 25 and 250° C. and a heating rate of 10° C./min.\nTG-FTIR indicates degradation above 150° C. for form B of lurbinectedin. A release of 2.6% of water was detected."}, "DSC thermal degradation": {"test": "DSC thermal degradation", "format": "physicochemical", "conditions": "closed Au crucibles, -50 to 250° C.", "protocol": "DSC experiments were carried out with a Perkin Elmer DSC 7 using closed Au crucibles with a heating range between −50 to 250° C. and a heating rate of 10 or 20° C./min.\nEstimation of the amorphous content by DSC was not possible. […] A glass transition temperature or melting point was not detected."}, "[4]": {"test": "Dynamic vapor sorption (DVS)", "format": "physicochemical", "protocol": "DVS experiments were carried out with a Projekt Messtechnik SPS 11-100n multi-sample water vapor sorption analyzer. The sample was allowed to equilibrate at 50% r.h. before starting a pre-defined humidity program. The program was: • 2 h at 50% r.h. • 50 to 0% r.h. […]\nDVS indicates a continuous water uptake and release with no steps and almost no hysteresis. […] Upon lowering the relative humidity again, the water content decreased and nearly returned to the original mass, see FIG. 5."}, "[5]": {"test": "Maximum solubility of lurbinectedin in different molarities of lactic acid", "format": "physicochemical", "protocol": "As such, in embodiments, a concentrated lurbinectedin solution is prepared in organic acid before addition of other excipients. In preferred embodiments, the organic acid has a pH less than 4, preferably less than 3.5, more preferably less than 3, or around 3. The maximum solubility of lurbinectedin was investigated in different molarities of the organic acid lactic acid. […] In a preferred embodiment, lurbinectedin is dissolved in an organic acid with a molarity of around 0.1 M to 0.5 M, preferably around 0.2 M to 0.4 M, more preferably around 0.3 M organic acid. An exemplary molarity is 0.31 M organic acid."}, "[6]": {"test": "Mixing of the concentrated lurbinectedin solution with buffer solution, precipitation", "format": "physicochemical", "conditions": "high concentration lurbinectedin solution (8.3 mg/mL in 0.1M lactic acid)", "protocol": "In embodiments, a multi-step compounding strategy is used to prepare lurbinectedin. Step 1 is the pre-dissolution step described above, for example: pre-dissolving partly crystalline lurbinectedin in lactic acid 0.31M at 25 mg/mL and diluting 3× with WFI to obtain the concentrated solution at 8.3 mg/mL in 0.1M lactic acid. To avoid precipitation of lurbinectedin, the remaining excipients should have acid pH when added to the compounding formulation. […] As such, in Step 2, an organic buffer solution containing the bulking agent (eg disaccharide) may be prepared at suitable pH. By way of example, this may comprise the preparation of a 0.04 M sodium lactate buffer at pH of around 4.2 containing sucrose. In step 3, the solutions from step 1 and step 2 are combined to form the final bulk solution. The final bulk solution may be adjusted with WFI to achieve the final target weight. By way of example, in step 3, the 8.3 mg/mL lurbinectedin concentrated solution in 0.1M lactic acid with pH≈3 is diluted with 0.04M sodium lactate buffer pH≈4.2 containing sucrose. The final bulk solution composition after adjustment of WFI to final weight may be, by way of example, 0.5 mg/mL lurbinectedin in 0.03M sodium lactate buffer pH=4+10% (w/v) sucrose. The present invention therefore identifies a compounding strategy to formulate partially crystalline lurbinectedin."}, "[7]": {"test_system": "solid and non-solid tumour cell lines", "conditions": "cited from earlier work"}, "[8]": {"test_system": "xenografted human tumor cell lines", "conditions": "xenografts in mice, such as breast, kidney and ovarian cancer; cited from earlier work"}}, "data": [{"substance": "lurbinectedin [form B of lurbinectedin]", "values": [{"measurement": "Dispersion of charge density (Q/m)", "setting": "[1]; listed as 1924128-LT", "result": "1.01 ± 0.3", "unit": "nC/g"}, {"measurement": "Dispersion of charge density (Q/m)", "setting": "[1]; listed as 1924129-LT", "result": "3.4 ± 1.4", "unit": "nC/g"}, {"measurement": "Average charge density (Q/m)", "setting": "[1]; listed as 1924128-LT", "result": "4.3 ± 0.4", "unit": "nC/g"}, {"measurement": "Average charge density (Q/m)", "setting": "[1]; listed as 1924129-LT", "result": "4.96 ± 2.0", "unit": "nC/g"}, {"measurement": "Average charge density relative to form A", "setting": "[1]; two different batches of each form", "result": "one order of magnitude lower"}, {"measurement": "Fraction of target concentration reached", "setting": "[2]; target 0.5 mg/mL in 0.03 M sodium lactate buffer pH 4, in 2 hours", "result": "60-70%"}, {"measurement": "Degradation temperature (TG-FTIR)", "setting": "[3]", "result": "above 150 °C"}, {"measurement": "Temperature at which degradation begins (DSC)", "setting": "DSC thermal degradation", "result": "above 130 °C"}, {"measurement": "Deliquescence (DVS)", "setting": "[4]", "result": "not deliquescent"}, {"measurement": "Hygroscopicity (DVS)", "setting": "[4]", "result": "hygroscopic"}, {"measurement": "Mass change Δm (water uptake, DVS)", "setting": "[4]; 50 to 96% r.h.", "result": "≈ 4%"}]}, {"substance": "lurbinectedin [form A of lurbinectedin]", "values": [{"measurement": "Total static charge relative to form B", "setting": "[1]", "result": "considerably higher"}, {"measurement": "Dispersion of charge density (Q/m)", "setting": "[1]; listed as P04", "result": "7.6 ± 2.8", "unit": "nC/g"}, {"measurement": "Dispersion of charge density (Q/m)", "setting": "[1]; listed as R05", "result": "15.23 ± 5.64", "unit": "nC/g"}, {"measurement": "Average charge density (Q/m)", "setting": "[1]; listed as P04", "result": "43.1 ± 3.86", "unit": "nC/g"}, {"measurement": "Average charge density (Q/m)", "setting": "[1]; listed as R05", "result": "64.02 ± 7.98", "unit": "nC/g"}, {"measurement": "Time to complete direct dissolution", "setting": "[2]; 0.5 mg/mL in 0.03 M sodium lactate buffer pH 4", "result": "approximately 30 minutes"}]}, {"substance": "lurbinectedin", "values": [{"measurement": "Maximum solubility", "setting": "[5]; 0.05 M lactic acid", "result": 7.2, "unit": "mg/mL"}, {"measurement": "Maximum solubility", "setting": "[5]; 0.5 M lactic acid", "result": 90.4, "unit": "mg/mL"}, {"measurement": "pH of buffer solution that can be mixed without precipitation of lurbinectedin", "setting": "[6]", "result": "≤ 5.6"}, {"measurement": "In vitro activity", "setting": "[7]", "result": "highly potent"}, {"measurement": "In vivo activity", "setting": "[8]", "result": "significant"}]}]}
